Results from patent publication EP0309120A2, “Atrial hypotensive peptide” (QUEEN'S UNIVERSITY AT KINGSTON, priority 1987, dated 1989).
Ends that are not written are not given here.

Columns and labels:
[1] = tested on: antiserum to iso-rANP(1-20) (P2A); test: Radioimmunoassay (RIA) with anti-P2A antiserum and 125I-P2A-Y tracer; assay type: binding, New Zealand white rabbits; details: antiserum used for the RIA
From the text: The procedure was repeated to produce the same 20 amino acid residue fragment with a tyrosine residue attached to the N-terminal serine. The 20-residue peptide (P2A) was mixed with Freund's complete adjuvant and injected subcutaneously into New Zealand white rabbits. After boosting at 5 weeks after the initial injection the rabbits were bled 1 week later. […] Tyrosinated P2A (P2A-Y) was iodinated using the chloramine T method and the iodinated tracer was purified by HPLC on a Waters µBondapak C₁₈ column. For radioimmunossay (RIA) the buffer contained 0.1M NaHPO₄ buffer, pH 7.4, 0.05M NaCl, 0.1% BSA and 0.02% […]. The RIA incubation mixture contained 3-100 pg of P2A in 100 µ l of buffer, 100 µl of diluted antiserum and 100 µl of ¹²⁵I-P2A-Y (approx. 8000 cpm). After incubation overnight at 4°C bound and free iodinated peptide were separated by second antibody precipitation using goat anti-rabbit - globulin. The sensitivity of the assay was 2-3 pg/tube with 50% displacement at 25-30 pg/tube.
The RIA was then used to monitor the purification of the peptide de novo from atrial extracts using gel-filtration and reverse-phase HPLC. The procedure used was essentially the same as the one briefly described above for the purification of ANP, except that the initial extraction and the gel-filtration stages were done in the presence of several protease inhibitors.

[2] = tested on: Aortic rings (thoracic aortae); test: Vasorelaxant activity on phenylephrine-contracted aortic rings; set-up: species or system New Zealand White rabbits
Description: Aortic rings (3-4mm) were cut from the thoracic aortae of New Zealand White rabbits. The rings were suspended in a 10 ml tissue bath containing Kreb's Ringer Solution, pH 7.4 at 37°C. The rings were maintained at about 70% of maximal contraction with phenylephrine in doses ranging from 1 x 10⁻⁶ to 5 x 10⁻⁸M. Vasorelaxant activity or peptides was tested by adding various concentrations of peptide to the bath.

[3] = tested on: bioassay rats; test: Bolus injection into anesthetized bioassay rats: urinary and cardiovascular responses; assay type: in vivo, male Sprague-Dawley rats
Description: Experiments were performed using male Sprague-Dawley rats, ranging in weight from 270-362 g. The rats were anesthetized by an intraperitoneal injection of sodium pentobarbital (70 mg.kg-1; MTC Pharmaceuticals, Hamilton, Ont.). Additional small amounts of anesthetic were administered as required in the course of the experiment. […] After installing a tracheal cannula, a femoral vein was cannulated and a priming infusion of saline (0.9% NaCl) was administered over a 20 min period (1.1 ml); this was followed by a maintenance saline infusion of 1.2 ml.h-1. The femoral artery was then cannulated for blood pressure measurement (Statham pressure transducer, model P23Db). A catheter was also advanced via the right external jugular vein towards the right heart for bolus injections of vehicle, ANF or the atrial peptide of the present invention (AHP). After tying off the penis, the bladder was cannulated for urine collection. Rates were not used or experiments aborted if the urine became bloody. The EKG was recorded for determination of heart rate.
Urine was collected in preweighed vials and volume calculated by weighing. The time for sequential urine collections was 5 min or, increments of 4 min until there was enough urine volume for electrolyte determinations (0.25 ml or 16 drops). Rat kidneys were removed at the termination of the experiments so that urinary excretion measurements could be normalized for total kidney weight. Measurements of NA+ and K+ were obtained using ion specific electrodes and Cl- was obtained by coulometric titration.
Zero time was established by 40-60 mins from the beginning the priming saline infusion. The control measurements were carried out over 20 mins or, until there was sufficient urine collection for electrolyte determinations. A bolus injection of vehicle, rANP(99-126) or iso-rANP(1-46) or iso-rANP(17-46) was then administered into the jugular vein catheter and the catheter immediately cleared of remaining injectate by a secondary bolus of 0.2 ml saline. The rANP(99-126) was obtained from Armand-Frappier, Montreal. Cardiovascular measurements were analyzed at 5 min intervals during control and at 1, 5, 10, 15 and 20 mins following administration of injectate. […] Thus, residues 17-46 of the native peptide represent a functional, as well as structural, homologue of both ANP and BNP. Moreover, it would appear that residues 1-20 of iso-rANP(1-46) are not required for biological activity. […] It required twice the dose of iso-rANP(17-46) (1.5 nanomol) to produce equivalent average decreases in mean arterial blood pressure and heart rate as rANP(99-126) (0.7 nanomol). […] Variability of response of assay rats to injected peptides is evident from the rather larger variances (SEM).

Row | Substance | cross-reaction with antiserum [1] | smooth muscle vaso-relaxant activity ([2]; rabbit aortic rings at about 70% of maximal contraction with phenylephrine, result in words) | higher dose required to produce the same relaxation obtained by 50 ng of rANP(99-126) ([2]; rabbit aortic rings, relative to 50 ng of rANP(99-126)) [fold] | potency compared with ANP(99-126) ([2]; rabbit aortic rings, result in words) | effect in increasing urinary volume as well as Na+, K+ and Cl- excretion ([3]; 3.0 nanomol, four-fold larger dose than rANP(99-126), compared with rANP(99-126)) | potency compared with rANP(99-126) ([3]; as shown in Table 1, result in words) | dose to produce equivalent average decreases in mean arterial blood pressure and heart rate ([3]; bolus into jugular vein catheter) [nmol] | urinary responses ([3]; dose 0.9 nmol) | additional effect on cardiovascular responses (mean arterial blood pressure, heart rate) ([3]; dose increased to 3.0 nanomol) | diuretic, natriuretic, hypotensive and bradycardic responses ([3]; injected into bioassay rats, result in words)
1 | ANP: atrial natriuretic peptide, length not specified at this place | did not cross-react |  |  |  |  |  |  |  |  | 
2 | MAHSSSCFGEKIDRIGAVSRLGCDILLIAQ (cysteine pairing not given here) [iso-rANP(17-46), chemically synthesized peptide corresponding to residues 17-46 of iso-rANP(1-46)] |  | showed smooth muscle vaso-relaxant activity | 20 | less potent | somewhat lesser effect | somewhat less than rANP(99-126) | 1.5 | only a small effect in most rats | no additional effect | elicited diuretic, natriuretic, hypotensive and bradycardic responses qualitatively similar to both the native peptide and rANP
